This note sets out measurements from BindingDB's records for patent US20250304587 (Jiangsu Tasly Diyi Pharmaceutical, 2025).

pIC50: −log10 of the molar value.

The assay has as its target Cytochrome P450 2C19 (Homo sapiens, UniProt P33261). Put plainly: Evaluation of Compound Inhibition of Cytochrome P450.

Sequence of Cytochrome P450 2C19 (P33261 whole entry): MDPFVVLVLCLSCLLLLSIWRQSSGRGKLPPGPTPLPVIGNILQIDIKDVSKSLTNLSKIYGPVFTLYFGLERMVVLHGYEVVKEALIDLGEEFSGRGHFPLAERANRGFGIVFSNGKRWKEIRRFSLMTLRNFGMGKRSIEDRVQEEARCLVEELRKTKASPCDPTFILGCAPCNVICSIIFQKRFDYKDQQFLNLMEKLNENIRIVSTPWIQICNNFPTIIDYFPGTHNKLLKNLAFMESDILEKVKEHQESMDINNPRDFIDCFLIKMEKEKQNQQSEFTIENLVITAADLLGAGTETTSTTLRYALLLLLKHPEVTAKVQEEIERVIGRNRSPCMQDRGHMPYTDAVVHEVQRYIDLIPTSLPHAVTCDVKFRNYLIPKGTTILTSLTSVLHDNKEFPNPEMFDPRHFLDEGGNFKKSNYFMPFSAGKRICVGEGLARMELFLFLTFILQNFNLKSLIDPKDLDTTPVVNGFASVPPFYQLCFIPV
Procedure: Enzymatic experiments were performed to quantify the inhibition of CYP450 enzyme activity of each isoform of CYP450 by small molecule inhibitors through fluorescence generated by the oxidation of the substrate by cytochrome P450. […] The Solution B composition used for the experiment was: 40 U/mL G6PDH (Sigma-aldrich, Cat #G6378). The substrate mix was 0.05× Solution A, 0.01× Solution B, 50 mM Potassium Phosphate, 0.01 mM BOMCC/0.01 mM EOMCC/0.001 mM DBOMF.

`C=CCn1c(=O)c2cnc(Nc3ccc(N4CCC5(CCN(C)CC5)CC4)cc3)nc2n1-c1ccc2c(n1)[C@](C)(O)C1(CC2)CC1` (racemic) [US20250304587, Compound 44]: the pIC50 was 5.00 to 6.00.

Compound `C=CCn1c(=O)c2cnc(Nc3ccc(N4CC5CC(C4)N5C)cc3)nc2n1-c1ccc2c(n1)[C@@](C)(O)C1(CC2)CC1` [US20250304587, Compound 7a] had a negative-log IC50 (pIC50) of 5.00 to 6.00.
